{"source": "a melting point compilation (Tetko et al.; mined from patent text by program, amines drawn as free bases though some values may be those of a salt)", "note": "Residues, ends and D or L forms follow the SMILES beside them. *: point of attachment. Boc = CC(C)(C)OC(=O)*", "data": [{"units": {"melting point": "°C"}, "values": [{"smiles": "CC(C)c1nc(-c2ccc(-c3cnc4[nH]c(=O)n(CC5CCOCC5)c4n3)cc2)n[nH]1", "melting point": "305 to 308"}, {"smiles": "COCc1ccc(OCC(=O)O)c(NC(=O)c2ccc(OCCCCc3ccccc3)cc2)c1", "melting point": "126 to 129"}, {"smiles": "Nc1ccc(Cl)n2nc(SCc3ccccc3)nc12", "melting point": "113 to 114"}, {"smiles": "CCCCN1CCN(CCCC)C2SC(=C3C(=O)CC(c4ccccc4)CC3=O)SC21", "note": "(stereo not drawn)", "melting point": "130 to 132"}, {"smiles": "O=S(=O)(COc1ncc(Cl)cn1)c1ncc(Cl)cn1", "melting point": 135}, {"smiles": "OCCn1cnc2c(NCCN3CCC(Nc4nc5ccccc5n4Cc4ccc(F)cc4)CC3)ncnc21", "melting point": 169}, {"smiles": "CC(=O)c1cc2c(s1)S(=O)(=O)CCc1cc(=O)n(-c3ccc(Cl)cc3)nc1-2", "melting point": "272 to 273"}, {"smiles": "CCOC(=O)c1c(Cl)c2cccnc2[nH]c1=O", "melting point": 172}, {"smiles": "CC(C)C(=O)N[C@H]1CC[C@H](CCN2CCN(c3nccc4c3CCO4)CC2)CC1", "melting point": 219}, {"smiles": "COc1ccccc1N1CCN(CCCNC(=O)c2cccc3c(=O)c(C)c(C4(C)CCCCC4)oc23)CC1", "melting point": "120 to 124"}, {"smiles": "CCOC(=O)CCCOc1cccc2cc(/C(C)=C/C(=O)N3CCOCC3)oc12", "melting point": "90 to 94.8"}, {"smiles": "COCCO[C@@H]1c2ccc3c(nc(C)n3C)c2O[C@H](c2ccccc2)[C@H]1O", "melting point": 163}, {"smiles": "CCC(=O)NCC[C@@H]1CCc2cc(O)c3c(c21)CCO3", "melting point": "149 to 152"}, {"smiles": "COc1cc(OC(F)F)nc(N)n1", "melting point": "106 to 107"}, {"smiles": "CCCC1=C(C#N)C(c2ccccc2Cl)c2c(n[nH]c2C2CCCC2)N1", "note": "(stereo not drawn)", "melting point": "> 270"}, {"smiles": "COC(=O)c1ccc(SC#N)c([N+](=O)[O-])c1", "melting point": "93 to 96"}, {"smiles": "CCCCc1ccc2c(n1)C(C(N)=S)CCC2", "note": "(stereo not drawn)", "melting point": "54 to 56"}, {"smiles": "Cc1ccc(O)c(Cn2c(NCCCN3CCOCC3)nc3ccc(Cc4c(C)cc(NCCO)cc4C)cc32)n1", "melting point": 162}, {"smiles": "O=C1CC(c2ccccc2)C(c2ccccc2)=NN1", "note": "(stereo not drawn)", "melting point": "221 to 223"}, {"smiles": "CC(C)(C)c1cc(CCc2nnco2)cc(C(C)(C)C)c1O", "melting point": "100 to 101"}, {"smiles": "CN(C)c1nc2sc3c(NCc4cccnc4)ncnc3c2c2c1CCC(C)(C)C2", "melting point": "208 to 209"}, {"smiles": "CS(=O)c1c(C#N)nn(-c2c(Cl)cc(C(F)(F)F)cc2Cl)c1NCC(N)=O", "note": "(stereo not drawn)", "melting point": "155 to 157"}, {"smiles": "OC1CSC(Oc2cncc(-c3ccc(F)c(Cl)c3)c2)C(O)C1O", "note": "(stereo not drawn)", "melting point": "200 to 201"}, {"smiles": "CCc1nc2c(N)nc3ccccc3c2n1CCCC#Cc1ccccc1", "melting point": "199 to 202"}, {"smiles": "O=C(OCC1CC1)c1ncn2c1[C@@H]1CCCN1C(=O)c1cc(Cl)ccc1-2", "melting point": "146 to 148"}, {"smiles": "COc1cc(NC(=O)C(F)(F)F)ccc1N1CCN(CCN(C(=O)C2CCCCC2)c2ccccn2)CC1", "melting point": "144 to 148"}, {"smiles": "COc1ccccc1C1C(=O)Nc2cc(C)c(Cl)cc21", "note": "(stereo not drawn)", "melting point": 193}, {"smiles": "CCCS(=O)(=O)c1sc(C(N)=O)c2c1-c1c(cnn1CC(F)(F)F)CC2", "melting point": "141 to 142"}, {"smiles": "Cc1[nH]c(=O)ccc1C(=O)c1ccccc1", "melting point": "185 to 187"}, {"smiles": "COc1cc(CN2CCC(=O)C(C(c3ccccc3)c3ccccc3)C2)ccc1O", "note": "(stereo not drawn)", "melting point": "131 to 132"}, {"smiles": "COC(=O)C(C)(C)Cc1c(SC(C)(C)C)c2cc(OCc3cnccn3)ccc2n1Cc1ccc(Cl)cc1", "melting point": "141 to 142"}, {"smiles": "Cc1ccc(S(=O)(=O)N[C@@H](C)C(=O)Oc2csc(-c3ccccc3)c2)cc1", "melting point": "85 to 87"}, {"smiles": "COc1cc2ncnc(NC3=CC(=O)C(Nc4ccccc4)=CC3=O)c2cc1OC", "melting point": "258 to 261"}, {"smiles": "O=C(CI)CCc1ccccc1", "melting point": "44 to 45"}, {"smiles": "O=C(O)CCc1cc2ccccc2s1", "melting point": "140 to 142"}, {"smiles": "CCSc1ccc([N+](=O)[O-])c(N)c1", "melting point": "75 to 76"}, {"smiles": "CN(C)NC(=O)N(OCc1ccccc1)C1c2ccccc2Oc2ccccc21", "melting point": 117}, {"smiles": "CCCOc1ccc(C=CC(=O)c2c(O)cc(OC)cc2OC)cc1", "melting point": 96.7}, {"smiles": "Cn1c(COc2ccc(CC3SC(=O)NC3=O)cc2)nc2ccc(Oc3ccc(NC(=O)c4cccc(Cl)c4)cc3)cc21", "note": "(stereo not drawn)", "melting point": "238 to 239"}, {"smiles": "COc1ccc(CC(NC(=O)CNC(=O)OCc2ccccc2)C(=O)NC2C(C(=O)O)OC(n3cnc4c(NC(=O)c5ccccc5)ncnc43)C2O)cc1", "note": "(stereo not drawn)", "melting point": "78 to 84"}, {"smiles": "CN(C)CCCC1(C)CCc2cccc(O)c2O1", "note": "(stereo not drawn)", "melting point": "127 to 133"}, {"smiles": "CC1(C)OC(=S)Nc2ccc(-c3cc(F)cc(Br)c3)cc21", "melting point": "221 to 222"}, {"smiles": "O=S(=O)(NCCc1ccc(CCl)cc1)c1ccc(Cl)cc1", "melting point": "96 to 98"}, {"smiles": "CONCc1nc2cnc3ccccc3c2n1CC1CCOCC1", "melting point": "58 to 63"}, {"smiles": "N#Cc1nn(-c2c(Cl)cc(C(F)(F)F)cc2Cl)cc1C#CBr", "melting point": "166 to 168"}, {"smiles": "CC=CCOc1ccc(C)c2c1C(=O)C(C)C2c1ccccc1", "note": "(stereo not drawn)", "melting point": "138 to 140"}, {"smiles": "CCCCc1nn2ccccc2c1C(=O)c1ccc(C#N)cc1", "melting point": 116}, {"smiles": "O=C(O)c1c2nc3ccccc3c-2[nH]c2ccc(F)cc12", "melting point": "> 243"}, {"smiles": "c1ccc2c(c1)c(-c1cc3nccnc3[nH]1)cn2CCCN1CCOCC1", "melting point": "180 to 185"}, {"smiles": "O=c1oc(-c2ccccc2)cc(O)c1C(SC1CCCCC1)c1ccccc1", "note": "(stereo not drawn)", "melting point": "189 to 191"}, {"smiles": "CCC(=O)NC[C@H]1CN(c2ccc3c(c2)C[C@@H](C)N3C=O)C(=O)O1", "melting point": "118 to 119"}, {"smiles": "COCCNC(=O)c1cccc(-c2cccc3c(C)c(Cc4cccc(C(F)(F)F)c4)sc23)c1", "melting point": "135 to 136"}, {"smiles": "CC1(C(=O)N2CCOCC2)COC(c2nc(-c3ccc(F)cc3)c(-c3ccnc(S(C)(=O)=O)n3)[nH]2)OC1", "note": "(stereo not drawn)", "melting point": "264 to 266"}, {"smiles": "COc1ccc(C=N[C@H]2C(OC(C)=O)O[C@H](COC(C)=O)[C@@H](OC(C)=O)[C@@H]2OC(C)=O)cc1", "note": "(stereo partly drawn)", "melting point": "180 to 181"}, {"smiles": "O=C(O)COc1cc(F)ccc1C(=O)NCc1nc2c(F)c(F)cc(F)c2s1", "melting point": "172 to 174"}, {"smiles": "CC(C)COc1c(-c2ccc(S(C)(=O)=O)c(F)c2)cnn(-c2cccc(Cl)c2)c1=O", "melting point": "180 to 183"}, {"smiles": "Cc1c(C(=O)O)ccc(S(C)(=O)=O)c1N(C)C", "melting point": "113 to 114"}, {"smiles": "CCNC(=O)NCCSCC(=O)NC/C=C\\COc1cccc(CN2CCCCC2)c1", "melting point": "90.2 to 91.2"}, {"smiles": "Cc1ccc2nccc(Cl)c2c1", "melting point": "47 to 51"}, {"smiles": "COc1ccc(C(=O)O)nc1OC1CCCC1", "melting point": "96 to 99"}, {"smiles": "COc1ccc(-c2nc(C)cc(OCCN3CCN(C(c4ccccc4)c4ccccc4)CC3)n2)cc1", "melting point": "132 to 133"}, {"smiles": "CC(Cn1ccc(-c2ccccc2)n1)C(=O)N(C)C", "note": "(stereo not drawn)", "melting point": "68 to 71"}, {"smiles": "c1cc(-c2ccc(N3CCNCC3)nc2)nc(Nc2ccc3[nH]nnc3c2)n1", "melting point": "280 to 283"}, {"smiles": "CC(C)CC(NC(=O)C(Cc1ccc(O)cc1)NC(=O)OC(C)(C)C)C(=O)NCC(=O)O", "note": "(stereo not drawn) (Boc-Tyr-Leu-Gly-OH; configuration not given here)", "melting point": "189 to 190"}, {"smiles": "CCn1ncc2c(Cl)c3ccc(OC)cc3nc21", "melting point": "95 to 98"}, {"smiles": "O=S(=O)(O)CCCNC1CCCCCC1", "melting point": "341 to 343"}, {"smiles": "Cc1ccc(-c2ccc3c(c2)C=C(C(=O)Nc2ccc(CNc4cccnc4)cc2)CC3)cc1", "melting point": "212 to 214"}, {"smiles": "O=C(c1ccc(Cl)cc1)N1N=C(C(F)(F)F)CC1(O)c1cc(F)ccc1F", "note": "(stereo not drawn)", "melting point": "110 to 113"}, {"smiles": "COc1ccc(Cc2cc(C(C)(C)C)c(O)c(C(C)(C)C)c2)cc1", "melting point": 139}, {"smiles": "CCCCCCCCCCCCCCCCCC(=O)ON1C(C)(C)CC(OC(C)=O)CC1(C)C", "melting point": "55 to 58"}, {"smiles": "COc1cccc(OC)c1-c1cc(C(=O)NC2(C(=O)O)C3CC4CC(C3)CC2C4)nn1-c1ccc(CNC(C)=O)c2ccccc12", "note": "(stereo not drawn)", "melting point": 211}, {"smiles": "OCc1ccc2c(n1)C(CNCCCCCCOCCC#Cc1ccc(F)cc1)OC(c1ccccc1)O2", "note": "(stereo not drawn)", "melting point": "83 to 85"}, {"smiles": "O=C(Nc1ccc(-c2cnc(-c3cccc(NC(=O)c4ccccn4)c3)[nH]2)cc1)c1ccccn1", "melting point": "205 to 208"}, {"smiles": "O=C(O)c1ccc2sc3ccccc3c(=O)c2c1", "melting point": "310 to 316"}, {"smiles": "CN(C)CCNc1ccc(S(C)(=O)=O)cc1[N+](=O)[O-]", "melting point": "130 to 131"}, {"smiles": "Clc1ccc(C(c2ccccc2)(c2ccccc2)n2ccnc2)cc1", "melting point": 125}, {"smiles": "CCOC(=O)c1nc(Cc2ccccc2[N+](=O)[O-])n[nH]1", "melting point": "135 to 140"}, {"smiles": "Cc1c(-c2ccc(=O)n(C)c2)cccc1[N+](=O)[O-]", "melting point": "157 to 159"}, {"smiles": "Nc1cccc(-c2ccc(CCN3CCN(CCc4ccccc4)CC3)cc2)n1", "melting point": "111 to 113"}, {"smiles": "OCc1ccccc1CCc1ccc(Br)cc1", "melting point": "72 to 75.5"}, {"smiles": "CCCc1c(OCCCCCCC#N)ccc(C(C)=O)c1O", "melting point": "64 to 66"}, {"smiles": "COc1ccc(COC(=O)c2ccc(C(O)C(=O)O)cc2)cc1", "note": "(stereo not drawn)", "melting point": "111 to 113"}, {"smiles": "O=C(O)CC1c2cc(C(F)(F)F)ccc2C(=O)N1CC(F)(F)F", "note": "(racemic)", "melting point": "202 to 204"}, {"smiles": "CN1CCN(c2c(F)cc3c(=O)c(C(=O)O)cn4c3c2N(C)CC4)CC1", "melting point": "266 to 269"}, {"smiles": "CCCn1c(=O)n(-c2ccc3c(c2)OCO3)c2ncc(NC(=O)OCC)cc21", "melting point": "146 to 147"}, {"smiles": "O=C(Nc1ccccc1)OCC1c2ccccc2Oc2ccccc21", "melting point": "180 to 181"}, {"smiles": "COc1ccc(C2CCS(=O)(=O)C2)cc1OC1CCCC1", "note": "(stereo not drawn)", "melting point": "89 to 90"}, {"smiles": "CC(=NCCO)c1ccccc1NC(=O)C(Cl)(Cl)Cl", "melting point": 182}, {"smiles": "CC1(C)CSc2sc(S(N)(=O)=O)cc2C1O", "note": "(stereo not drawn)", "melting point": "158 to 159"}, {"smiles": "CCOC(=O)C1CCc2cc(OC)ccc2C1=O", "note": "(stereo not drawn)", "melting point": "58 to 60"}, {"smiles": "CC(C(=O)N1CCCC1C(=O)O)N(C(=O)C(NC(=O)c1ccccc1)SC(=O)c1ccccc1)C(C)(C)C", "note": "(stereo not drawn)", "melting point": "97 to 100"}, {"smiles": "COc1ccc(C2CCN(C(=O)CC(N)=O)CC2)cc1OC1CCCC1", "melting point": "132 to 133"}, {"smiles": "CCOC(=O)C(C)NNc1cc(F)cc(F)c1", "note": "(stereo not drawn)", "melting point": "139 to 141"}, {"smiles": "N#Cc1c(N2CCN(C(=O)c3cccs3)CC2)c2cc(Cl)cnc2n(Cc2cccc(F)c2)c1=O", "melting point": 204}, {"smiles": "c1cc(OCc2ccc3ccccc3n2)cc(C2SCCCS2)c1", "melting point": "92 to 93"}, {"smiles": "COc1ccc(-c2cc3cc(OC)cc(C=C(Cl)Cl)c3o2)cc1", "melting point": "129 to 131"}, {"smiles": "CSc1nnc(-c2ccc3ncn(-c4cccc(OC(F)(F)F)c4)c3c2)o1", "melting point": "149 to 150"}, {"smiles": "Cn1cc(-c2ccccc2)c(=O)c(-c2cccc(-c3ccccc3)c2)c1", "melting point": "186 to 190"}]}]}
